Several values for one entry are separate records, joined by “and”; a condition that tells them apart may be missing. Identical values can stand only once.
Experiments:
[1] = tested on: H460 (large cell carcinoma) cells; test: In vitro cell viability assay, H460 cells; format: cell-based, human; settings: cell line H460; HSV-1716 at an MOI of 0.1, mitomycin C at 0.1 micromolar
Method: Individual chemotherapeutic agents were then added to selected wells.
Each treatment experiment was performed at least twice.

H460 tumors = test: In vivo xenograft flank model; set-up: species or system SCID mice; settings: 22 days after injection of H460 cells
Method: The combined effects of mitomycin C and HSV-1716 using NSCLC tumors was assessed in vivo as follows. Cells of line H460 were implanted subcutaneously in the flanks of severe combined immunodeficient (SCID) mice. […] HSV-1716 was injected directly into individual tumors at a dose of 4×10^6 plaque forming units (pfu) in 200 microliters of medium. Control mice were injected with medium alone. Twenty-four hours later, 0.17 milligrams per kilogram body weight mitomycin C or an equivalent amount of PBS was administered to separate groups of HSV-treated and control mice. Tumor volume was estimated in all mice at regular intervals. Tumor volume in cubic millimeters was estimated using the formula
where TLmm was tumor length in millimeters and TWmm was tumor width in millimeters. Tumor growth curves were generated using the estimated values for tumor volume. After a period of 3-4 weeks, mice were sacrificed and their tumors were weighed.
In order to assess the oncolytic effect of mitomycin C in combination with HSV-1716, a murine xenograft model was used. […] These doses were designated ‘sufficient doses.’ H460 tumor cells were injected into the flanks of SCID mice. […] At that time, about 4×10^6 pfu of HSV-1716 or an equivalent volume of culture medium was injected into individual tumors. […]

HSV-1716 in H460 cells = test: One step growth curve, H460 cells (black plaque assay); format: cell-based, herpes simplex virus type 1; settings: for burst size of HSV-1716: H460, MOI 0.1
Method: H460 cells were incubated overnight in six-well plates at a density of about 300,000 cells per well under standard culture condition. Following this incubation, the cells were infected with HSV-1716 at an MOI of 0.1 pfu. In a parallel experiment with five different experimental arms, the following procedures were performed. In the first and second arms, the cells were incubated in the presence of 0.1 micromolar mitomycin C or an equivalent additional volume of culture medium. Mediun or medium containing mitomycin C was added to the wells for 3 hours, either immediately before (in the first arm) or immediately following (in the second arm) infection of the cells with HSV-1716. In the other three arms, medium containing 0.1, 1.0, or 3.0 micromolar mitomycin C was added to the wells for 48 hours following infection of the cells with HSV-1716.
Cells were harvested from individual wells 1, 6, 19, 24, or 48 hours following infection. Cells were harvested by scraping cells from the walls of their well into the medium contained within the well. Harvested cells were stored at −80° C. Cell samples were titered by black plaque assay using baby hamster kidney cell (BHK) monolayers as described (Kucharczuk et al., 1997, Cancer Res. 57:466-471).
In order to examine what effect mitomycin C might have on viral replication, one step growth curve experiments were performed. H460 cells were infected with HSV-1716 at an MOI of 0.1, and then 0.1 or 1.0 or 3.0 micromolar mitomycin C was added to the cell culture medium. At selected times, cells were harvested and titered by black plaque assay as described herein. […] Addition of 1.0 or 3.0 micromolar mitomycin C for 48 hours after infection reduced burst size (13.7 and 0.2, respectively).

HSV-1716 in A549 cells = test: One step growth curve, A549 cells; format: cell-based, herpes simplex virus type 1; settings: cell line A549; low dose mitomycin C (0.1 micromolar)

CO[C@@]12[C@H](COC(N)=O)C3=C(C(=O)C(C)=C(N)C3=O)N1C[C@@H]1N[C@@H]12 [mitomycin C]
cell survival [1]: 96.7%
final mean tumor burden (tumor weight) (H460 tumors; HSV-1716 4×10^6 pfu intratumoral day 7, mitomycin C 0.17 mg/kg i.v. day 8, n=14): 1.122±0.070 grams
reduction of tumor burden relative to the control (H460 tumors; HSV-1716 4×10^6 pfu intratumoral, mitomycin C 0.17 mg/kg i.v.): 20.2% and 21.8%
burst size of HSV-1716 (HSV-1716 in H460 cells; 1.0 micromolar mitomycin C for 48 hours after infection): 13.7
burst size of HSV-1716 (HSV-1716 in H460 cells; 3.0 micromolar mitomycin C for 48 hours after infection): 0.2
burst size of HSV-1716 (HSV-1716 in H460 cells; post-treatment with 0.1 micromolar mitomycin C for 3 hours): 57.1
burst size of HSV-1716 (HSV-1716 in H460 cells; post-treatment with 0.1 micromolar mitomycin C for 48 hours): 53.3
burst size of HSV-1716 (HSV-1716 in H460 cells; pre-treatment with 0.1 micromolar mitomycin C for 3 hours): 42.1
effect on burst size of HSV-1716 (HSV-1716 in H460 cells; cell line H460, low dose mitomycin C (0.1 micromolar)): Neither Augmented nor Reduced
effect on burst size of HSV-1716 (HSV-1716 in A549 cells): Neither Augmented nor Reduced

Source: patent US6428968B1, “Combined therapy with a chemotherapeutic agent and an oncolytic virus for killing tumor cells in a subject” (The Trustees of the University of Pennsylvania, priority 1999, dated 2002)
